The text below walks through data of patent US20200079766A1, “MONOCYCLIC OGA INHIBITOR COMPOUNDS” (Janssen Pharmaceutica NV, priority 2016, published 2020).

The subject of series [1] is OGA in HEK293 cells inducible for P301L mutant human Tau (isoform 2N4R). Briefly: OGA cellular assay: immunocytochemical detection of O-GlcNAcylated proteins (CTD110.6 antibody) after 6 h incubation. The following applies: Homo sapiens, HEK293, 6 h; for Emax: maximum = Thiamet G 200 uM; for EC50: read-out: Cellular hOGA, pEC50 (converted). It is filed as cell-based. In a few lines: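 Low-glucose medium, 6 h compound exposure at 0.2% DMSO; cells PFA-fixed and O-GlcNAc ICC signal imaged at 488 nm (9 fields/well), Hoechst nuclei counted for toxicity. Thiamet G 200 uM on each plate as maximum; IC50 from non-linear regression.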

Series [2] addresses T1, recombinant human Meningioma Expressed Antigen 5 (MGEA5), also referred to as O-GlcNAcase (OGA) (Homo sapiens, UniProt O60502).
T1 construct: Full length OGA enzyme was purchased at OriGene (cat # TP322411); purchased OriGene TP322411
T1 sequence (O60502 1-916): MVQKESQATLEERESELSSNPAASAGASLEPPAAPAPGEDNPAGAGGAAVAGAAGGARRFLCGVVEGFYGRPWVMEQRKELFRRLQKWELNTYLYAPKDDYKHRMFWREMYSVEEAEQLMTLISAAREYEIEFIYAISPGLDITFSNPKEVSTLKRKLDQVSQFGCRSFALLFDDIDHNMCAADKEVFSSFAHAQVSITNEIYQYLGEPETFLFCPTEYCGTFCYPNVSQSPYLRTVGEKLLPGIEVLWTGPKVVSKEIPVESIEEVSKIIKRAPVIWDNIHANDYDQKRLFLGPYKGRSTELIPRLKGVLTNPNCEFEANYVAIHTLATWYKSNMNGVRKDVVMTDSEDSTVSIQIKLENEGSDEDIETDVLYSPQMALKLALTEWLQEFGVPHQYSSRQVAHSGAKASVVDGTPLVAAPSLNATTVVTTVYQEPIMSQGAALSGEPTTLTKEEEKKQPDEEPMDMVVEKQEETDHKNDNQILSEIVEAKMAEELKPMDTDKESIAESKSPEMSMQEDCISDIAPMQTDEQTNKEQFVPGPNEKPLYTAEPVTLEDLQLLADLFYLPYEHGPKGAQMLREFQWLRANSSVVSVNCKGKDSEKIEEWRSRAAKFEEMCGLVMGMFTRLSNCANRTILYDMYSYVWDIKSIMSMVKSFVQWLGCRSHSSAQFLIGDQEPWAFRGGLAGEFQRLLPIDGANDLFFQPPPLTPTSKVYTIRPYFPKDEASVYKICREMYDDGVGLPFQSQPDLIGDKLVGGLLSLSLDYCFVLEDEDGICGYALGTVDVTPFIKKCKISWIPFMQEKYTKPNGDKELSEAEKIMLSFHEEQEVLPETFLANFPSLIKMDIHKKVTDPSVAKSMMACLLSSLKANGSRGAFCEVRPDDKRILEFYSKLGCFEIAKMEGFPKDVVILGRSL
Briefly: OGA biochemical assay: inhibition of FM-GlcNAc hydrolysis, fluorescence; protocol A (10 nM OGA, 1 h) or protocol B (2 nM OGA, 6 h). The following applies: Enzymatic protocol B (2 nM OGA, 6 h); for IC50: read-out: Enzymatic hOGA, pIC50 (converted). In a few lines: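 Full-length human OGA in 200 mM citrate/phosphate pH 7.2 with 0.005% Tween-20, compound pre-incubated 60 min at RT, then 100 uM FM-GlcNAc (final); 10 nM enzyme for 1 h or 2 nM for 6 h at RT. Stopped with pH 11.0 carbonate; fluorescein read at ex 485/em 538 nm. IC50 and Hill coefficient from curve fit.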

Where a name gives a salt, the structure may show the parent alone. Some results are limits rather than exact numbers.

With `Cc1cc(CC2CCCN(C(C)c3ccc4c(c3)OCCO4)C2)cc(C)n1` (racemic) (as salt: HCl) [compound 142], the melting point was 256.05 °C.
The same measure, in the same setting: with `CC(=O)Nc1ncc(CN2CCC(OCc3cc(C)nc(C)c3)C2)s1` (racemic) [Product 81] the figure was 118.26 °C.
The same measure, in the same setting: in the case of `CC(=O)Nc1ncc(CN2CCC(COc3cc(C)nc(C)c3)C2)s1` (racemic) [Product 89] it was 125.9 °C; in that of `CC(=O)Nc1ncc(CN2CCC(Cc3cncnc3C)C2)s1` (racemic) [Product 103], 147.16 °C.
On the same count and under the same terms, with `Cc1cc(CC2CCCN(C(C)c3ccc4sc(C)nc4c3)C2)cc(C)n1` (single isomer, unassigned) (as salt: HCl) [compound 118] the figure was 270.1 °C.
Molecule `CC(=O)Nc1ncc(CN2CCC(Cc3cc(F)ncc3C)C2)s1` (stereo not drawn) [Product 106] gave a melting point of 140.36 °C.
For the molecule `CC(=O)Nc1ncc(CN2CCC(Cc3ccc(C)c(C)n3)C2)s1` (stereo not drawn) [compound 38], the melting point stood at 107.53 °C. In series [1], the Emax was 90.3% and the EC50 was 39.8 nM. Further, in series [2], the Emax turned out to be 99.7% and the IC50 is 19.5 nM.
Turning to `CC(=O)Nc1ncc(CN2CCC(Cc3ncccc3F)C2)s1` (stereo not drawn) [compound 39], the melting point was determined as 150.08 °C. Further, in series [2], the Emax came out at 99.2% and the IC50 was 60.3 nM.
Consider `CC(=O)Nc1ncc(CN2CCC(Cc3nccc(C)c3F)C2)s1` (stereo not drawn) [compound 43], for which the melting point worked out at 129.25 °C. Besides, in series [1], the Emax amounted to 87% and the EC50 is 79.4 nM. Moreover, in series [2], the Emax worked out at 102% and the IC50 is 9.12 nM.
For the molecule `CC(=O)Nc1ncc(CN2CCC(Cc3cnc(C(N)=O)cn3)C2)s1` (stereo not drawn) [compound 105], in series [1], the maximal response (Emax) worked out at 93.3% and the EC50 was 100 nM. Also, in series [2], the Emax was 102% and the IC50 is 19.5 nM.
The like results for `CC(=O)Nc1ncc(CN2CCC(Cc3cc(F)ncc3C)C2)s1` (stereo not drawn) [compound 106] were, in that order, 86.9%, 41.7 nM, 101% and 21.4 nM.
Consider `CC(=O)Nc1ncc(CN2CCC(Cc3ccc(F)c(C)n3)C2)s1` (stereo not drawn) [compound 107], for which the melting point was 173.68 °C. Besides, in series [1], the Emax turned out to be 82% and the EC50 was 138 nM. In series [2], the Emax came to 102% and the IC50 was 40.7 nM.
As to `CC(=O)Nc1ncc(CN2CCC(Cc3cncc(C)n3)C2)s1` (stereo not drawn) [compound 108], the melting point worked out at 118.3 °C. Moreover, in series [1], the Emax was determined as 78.9% and the EC50 is 155 nM. Moreover, in series [2], the Emax was found to be 103% and the IC50 is 33.1 nM.
With `COc1nc(C)ccc1CC1CCN(Cc2cnc(NC(C)=O)s2)C1` (stereo not drawn) [compound 109], in series [1], the Emax is 115% and the EC50 was 52.5 nM. In series [2], the Emax stood at 103% and the IC50 is 18.6 nM.
The like results for `CC(=O)Nc1ncc(CN2CC[C@H](Cc3cc(C)nc(F)c3)C2)s1` [compound 110] were, in that order, 91.3%, 24.5 nM, 103% and 20 nM.
The like results for `CC(=O)Nc1ncc(CN2CC[C@@H](Cc3cc(C)nc(F)c3)C2)s1` [compound 111] were, in that order, 97.4%, 52.5 nM, 103% and 30.9 nM.
With `CC(=O)Nc1ncc(CN2CC[C@H](Cc3cc(C)nc(C)c3)C2)s1` [compound 112], in series [1], the Emax came out at 118% and the EC50 is 17.8 nM. In series [2], the Emax was 102% and the IC50 is 4.57 nM.
Take `CC(=O)Nc1ncc(CN2CC[C@@H](Cc3cc(C)nc(C)c3)C2)s1` [compound 113]: in series [1], the Emax is 105% and the EC50 was 11.2 nM. Further, in series [2], the Emax was 102% and the IC50 is 4.47 nM.
On to `Cc1cc([C@H]2CCCN([C@@H](C)c3ccc4sc(C)nc4c3)C2)cc(C)n1` [compound 117], for which, in series [1], the Emax was determined as 99.5% and the EC50 was 97.7 nM. Also, in series [2], the Emax was determined as 102% and the IC50 was 12 nM.
The like results for `CC(=O)Nc1ncc(CN2CCC[C@H](Cc3ncc(F)cc3F)C2)s1` [compound 121] were, in that order, 110%, 28.8 nM, 98.3% and 4.27 nM.
For the molecule `CC(=O)Nc1ncc(CN2CCC[C@H](Cc3cc(F)ncc3C)C2)s1` [compound 122], in series [1], the Emax was 97.2% and the EC50 is 4.17 nM. Also, in series [2], the maximal response (Emax) worked out at 100% and the IC50 was 2.51 nM.
The matching figures for `CC(=O)Nc1ncc(CN2CCC[C@H](Cc3cc(C)nc(F)c3)C2)s1` [compound 123]: 90.5%, 9.77 nM, 99.2% and 2.75 nM.
The matching figures for `COc1nc(C)ccc1C[C@H]1CCCN(Cc2cnc(NC(C)=O)s2)C1` [compound 126]: 97.5%, 11.5 nM, 100% and 1.38 nM.
The matching figures for `CC(=O)Nc1ncc(CN2CCC[C@H](Cc3cncc(C)n3)C2)s1` [compound 127]: 88.5%, 27.5 nM, 102% and 2.88 nM.
As to `CC(=O)Nc1ncc(CN2CCC[C@H](Cc3nc(C)cnc3C)C2)s1` [compound 128], in series [1], the Emax was 93.2% and the EC50 is 39.8 nM. For the same molecule, in series [2], the Emax turned out to be 102% and the IC50 is 1.82 nM.
For `CC(=O)Nc1ncc(CN2CCC[C@H](Cc3ccc(F)c(C)n3)C2)s1` [compound 129], in series [1], the Emax was 101% and the EC50 was 20 nM. In series [2], the Emax came out at 102% and the IC50 is 2.82 nM.
As to `CC(=O)Nc1ncc(CN2CCCC(COc3cc(C)nc(C)c3)C2)o1` (stereo not drawn) [compound 138], in series [1], the Emax amounted to 74.2% and the EC50 is 437 nM. In series [2], the Emax stood at 102% and the IC50 was 53.7 nM.
The like results for `COc1cc(C[C@H]2CCN(Cc3cnc(NC(C)=O)s3)C2)cc(C(F)(F)F)n1` [compound 143] were, in that order, 86.2%, 60.3 nM, 102% and 21.4 nM.
On to `Cc1cc(C2CCCN(C(C)c3ccc4nccnc4c3)C2)cc(C(F)(F)F)n1` (stereo not drawn) [compound 144], for which, in series [1], the Emax was determined as 42.8% and the EC50 was more than 1000 nM. In addition, in series [2], the Emax was 101% and the IC50 was 41.7 nM.
The matching figures for `Cc1cc(C[C@H]2CCCN(Cc3ccc4sc(C)nc4c3)C2)cc(C)n1` [compound 145]: 39.4%, more than 1000 nM, 101% and 126 nM.
The like results for `Cc1cc(C[C@H]2CCCN(Cc3ccc4scnc4c3)C2)cc(C)n1` [compound 147] were, in that order, 33.2%, more than 1000 nM, 99% and 282 nM.
The like results for `Cc1cc(C[C@H]2CCCN(Cc3ccc4c(c3)OCCO4)C2)cc(C)n1` [compound 152] were, in that order, 41.9%, more than 1000 nM, 102% and 102 nM.
As for `CC(=O)Nc1ncc(CN2CCC[C@@H](COc3cc(C)nc(C)c3)C2)s1` [compound 154], in series [1], the Emax was 116% and the EC50 is 38 nM. Besides, in series [2], the Emax was 103% and the IC50 is 15.1 nM.

As a reminder, the melting point is the temperature, or range, at which the solid turns liquid. As a reminder, the Emax is the size of the effect at its maximum, as opposed to the concentration needed.
